Test results: US20110212053A1, “PHOSPHATIDYLINOSITOL 3 KINASE INHIBITORS” (priority 2008, published 2011)

What was measured:
[1] = system: U-87 MG cells; assay: CellTiter-GLO cell proliferation assay, U-87 MG; type: cell-based; settings: Homo sapiens, preliminary experiments, no unit printed with the values (paragraph speaks of nM), read-out: mean concentration for 50% inhibition of U-87 MG cell proliferation
Description: (§1) Compound Preparation: Cell-based assays: 1000× stocks of inhibitors were prepared in DMSO. A 10 mM master stock was prepared and all other stocks were generated by serial dilution of the master stock in DMSO. The final concentration of DMSO in cell-based assays was 0.1% (v/v).
CellTiter-GLO® Cell Proliferation Assay: CellTiter-GLO® (Promega) quantifies cell number as a measure of the ATP in a cell culture. 1,000-10,000 human tumor cells (of multiple histotypes) were plated in 100 μL of growth medium (10% (v/v) FBS in DMEM) in white, collagen coated 96-well plates (Biocoat) and allowed to adhere overnight at 37° C. in a 5% CO2 incubator. All test inhibitors were prepared in DMSO. For EC50 determinations, 1000× inhibitor stocks were prepared from a 10 mM master stock by serial dilution in DMSO and subsequently diluted in fresh growth medium to the desired inhibitor concentration. The growth medium was removed by aspiration and replaced with fresh medium containing inhibitors. […]
After 72 hours, the plates were removed from the incubator and equilibrated to room temperature for 30 minutes. […] Plates were incubated in the dark for 10 minutes at room temperature before reading luminescence on a SpectraMax M5 luminometer. Results are expressed as % inhibition relative to control cells (DMSO only). EC50 values were calculated via non-linear regression using GraphPad Prism data analysis software.

[2] = system: p-AKT(S473) in IGF-1-stimulated A549 cells; assay: In-cell western blot (cytoblot) of AKT phosphorylation, IGF-1-stimulated A549; type: cell-based; settings: Homo sapiens, read-out: IC50 against the p-AKT(S473) phosphorylation site
Description: as §1
In-cell western blot (cytoblot) mechanistic assay; Measurement of AKT phosphorylation: The in-cell western blot assay is a quantitative 96-well immunocytochemistry assay using fixed cells. Phosphorylated AKT is detected and quantified via either enhanced chemiluminescence (ECL) or near infra-red (LI-COR) methods. Log-phase cells (10,000 A549, RKO or 30,000 U-87 MG) were plated in collagen coated, 96 well plates (Nunc) in 200 μL of growth medium (10% FBS/DMEM) and allowed to attach overnight at 37° C. in 5% CO2 incubator. Black 96 well plates were used for ECL assays. White, clear bottomed 96 well plates were used for LI-COR assays. The following day the growth medium was removed. For experiments using U-87 MG cells and RKO cells, the growth medium was replaced with 200 μL of fresh growth medium containing inhibitors dissolved in DMSO. PI3K inhibitors were dosed using half-log dilutions to generate an eight-point dose-response curve from 0.0 μM-10 μM for EC50 determinations, and the final concentration of DMSO in the test wells was 0.1% (v/v). The inhibitor treated cells were then incubated for 1 hour at 37° C. […]
After the inhibitor incubation phase (with or without IGF-1 stimulation), the medium was aspirated, the cells washed once with Tris-Buffered Saline (TBS) and then fixed in the wells by addition of 200 μL of cold 3.7% (v/v) formaldehyde diluted in TBS to test wells and incubated for 15 minutes at 4° C. […] The wells were then was washed four times with ice-cold TBS-T. Phospho-AKT luminescent signal was detected after a 1 minute incubation of test wells with 100 μL of ECL reagent using a SpectraMax M5 luminometer. (ii) Near-infrared fluorescence detection (LI-COR): After removal of the methanol, wells were blocked with 200 μL of LI-COR blocking buffer for 1 hour at room temperature. […]

[3] = molecular target: TRKC (Homo sapiens, UniProt Q16288); assay: Radiometric HotSpot kinase assay, TRKC; type: biochemical; settings: 1 μM compound, 10 μM ATP
Description: (§2) Kinase Profiling: The inhibitory activity of the PI3K inhibitor compounds of the invention against 250 protein kinases was determined via the radiometric HotSpot Kinase Profiling (Reaction Biology Corporation, Malvern, Pa.). Compounds were profiled at a final concentration of 1 μM compound against recombinant protein kinases in the presence of 10 μM ATP and data were expressed as percent inhibition. IC50 and/or percent inhibition at 1 μM compound values were determined for select compounds against a subset of kinases (MELK, MNK1, MNK2, mTOR, PIM-1. TRKC, and PDGFRα(D842V)).
(§3) Compounds of the invention were assayed against the select kinases using the KinaseGLO assay (MELK) or the radiometric assay (PIM, TRKC, PDGFRα(D842V), MNK1 and mTOR). IC50 values were determined using 8-10 point half-log dose dilutions and calculated via nonlinear regression analysis using Graphpad Prism data analysis software.

[4] = molecular target: PIM-1 (Homo sapiens, UniProt P11309); assay: Radiometric HotSpot kinase assay, PIM-1; type: biochemical; settings: 1 μM compound, 10 μM ATP
Description: as §2, §3

Chain of TRKC (Q16288 32-839): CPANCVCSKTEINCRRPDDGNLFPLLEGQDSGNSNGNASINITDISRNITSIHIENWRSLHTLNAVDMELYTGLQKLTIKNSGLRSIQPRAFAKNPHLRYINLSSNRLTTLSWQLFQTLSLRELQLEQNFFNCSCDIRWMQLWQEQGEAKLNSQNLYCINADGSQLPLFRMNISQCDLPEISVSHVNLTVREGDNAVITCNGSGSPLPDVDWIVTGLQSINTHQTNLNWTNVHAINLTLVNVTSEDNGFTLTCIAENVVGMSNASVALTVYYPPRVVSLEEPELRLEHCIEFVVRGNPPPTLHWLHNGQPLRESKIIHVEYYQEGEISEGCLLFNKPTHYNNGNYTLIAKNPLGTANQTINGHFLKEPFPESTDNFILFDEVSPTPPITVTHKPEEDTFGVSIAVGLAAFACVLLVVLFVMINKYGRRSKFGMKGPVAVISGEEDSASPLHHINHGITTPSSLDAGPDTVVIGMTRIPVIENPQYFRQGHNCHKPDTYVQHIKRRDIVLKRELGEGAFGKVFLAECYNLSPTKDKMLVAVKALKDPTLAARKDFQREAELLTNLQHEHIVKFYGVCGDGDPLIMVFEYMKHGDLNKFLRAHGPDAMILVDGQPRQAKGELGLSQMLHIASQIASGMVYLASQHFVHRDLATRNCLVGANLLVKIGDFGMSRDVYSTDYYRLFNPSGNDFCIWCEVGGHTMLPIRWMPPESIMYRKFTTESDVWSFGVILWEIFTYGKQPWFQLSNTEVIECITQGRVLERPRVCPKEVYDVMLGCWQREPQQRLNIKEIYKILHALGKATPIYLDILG
Chain of PIM-1 (P11309 whole entry): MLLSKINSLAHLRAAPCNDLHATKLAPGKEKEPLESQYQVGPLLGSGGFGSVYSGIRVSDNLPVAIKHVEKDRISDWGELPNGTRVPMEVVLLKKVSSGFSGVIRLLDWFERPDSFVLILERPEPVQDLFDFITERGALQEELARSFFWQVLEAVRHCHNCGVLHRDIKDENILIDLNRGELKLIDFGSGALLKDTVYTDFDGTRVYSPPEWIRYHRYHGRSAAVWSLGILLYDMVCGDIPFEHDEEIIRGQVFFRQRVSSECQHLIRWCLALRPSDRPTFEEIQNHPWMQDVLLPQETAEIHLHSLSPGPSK

Row | Compound | IC50 [1] [nM] | IC50 [2] [nM] | inhibition at 1 µM [3] [%] | inhibition at 1 µM [4] [%]
1 | CC(C)(C#N)c1ccc(-c2n[nH]c3cnc4ccc(-c5cnc6ccccc6c5)cc4c23)cc1 [Compound 1078, 2-methyl-2-(4-(8-(quinolin-3-yl)-3H-pyrazolo[3,4-c]quinolin-1-yl)phenyl)propanenitrile] | 295 | 43 |  | 
2 | CC(C)(C#N)c1ccc(-c2n[nH]c3cnc4ccc(-c5cccnc5)cc4c23)cc1 [Compound 1107, 2-methyl-2-(4-(8-(pyridin-3-yl)-3H-pyrazolo[3,4-c]quinolin-1-yl)phenyl)propanenitrile] | 470 | 189 | > 97 | 85 to 95
3 | CC(C)(C#N)c1ccc(-c2n[nH]c3cnc4ccc(-c5ccc6ncccc6c5)cc4c23)cc1 [Compound 1110, 2-methyl-2-(4-(8-(quinolin-6-yl)-3H-pyrazolo[3,4-c]quinolin-1-yl)phenyl)propanenitrile] |  | 210 | > 80 | 60 to 85
